Patent publication US20070299072A1, “KV1.5 POTASSIUM CHANNEL INHIBITORS” (Wyeth, priority 2006, published 2007)

How the values were obtained:
Format in all cases: cell-based
Kv1.5 = target: T1, Kv1.5 (Homo sapiens, UniProt P22460); assay: Kv1.5 Patch Clamp EP (whole cell patch clamp; single point at 1 μM and IC50); conditions: single point at 1.0 μM, Kv1.5 stably over expressed in HEK or LTK- cells
T1 construct: expressed in transfected cells; host or cells: HEK or LTK- cells
Procedure: The external solution is standard Tyrodes solution. […] Inhibition was measured at the end of the 1 second pulses and expressed relative to controls. Initial Kv1.5 inhibition is estimated by single point determinations done at 1 μM.

L-type calcium channels = assay: FLIPR L-type Calcium Channel Assay (calcium influx in HL-1 cells after KCl); conditions: read-out: L-type Ca2+ IC50
Procedure: HL-1 cells expressing endogenous L-type calcium channels are removed from culture flasks using trypsin, plated on fibronectin/gelatin-coated, clear-bottomed, black-walled 96-well microplates in Claycomb media (JRH Biosciences #51800) containing 10% fetal bovine serum, 4 mM L-glutamine, and 10 μM norepinephrine, and grown to confluency overnight. The next day, growth medium is aspirated from confluent cell monolayers and replaced with 100 μL per well Tyrode's solution (in mM: 130 NaCl, 4 KCl, 1.8 CaCl2, 1.0 MgCl2, 20 HEPES, 10 glucose, pH 7.35) and 50 μL per well FLIPR Calcium Assay kit, component A (#R-8033, Molecular Devices Corporation) and incubated for 60 min. in a 5% CO2 37° C. incubator. 50 μL per well test compounds are added to the plates and further incubated for 15 min. in a 5% CO2 37° C. incubator. All final solutions contain the anion exchange inhibitor, probenecid (2.5 mM). The 96-well plates are then placed in the center position of the FLIPR 1 (Fluorometric Imaging Plate Reader, Molecular Devices Corporation). Cell monolayers in each well are simultaneously illuminated at 488 nm with an Argon ion laser, and fluorescence emission is monitored using a 510-570 nm bandpass filter and a cooled CCD camera. To depolarize the plasma membrane and activate L-type calcium channels, 50 μL per well of 20 mM KCl (final concentration) are dispensed simultaneously to all 96 wells using the FLIPR's automatic 96-well pipettor. Fluorescence measurements are captured for 5 min. following KCl addition. Calcium influx, expressed as % control, is calculated for each concentration of test compound and concentration-response curves and IC50 values are generated using GraphPad Prism 4.0.

HERG = target: T2, HERG (Homo sapiens, UniProt Q12809); assay: HERG Patch Clamp EP (whole cell patch clamp, tail currents; single point at 10 μM and IC50); conditions: human, HEK cells stably overexpressing HERG, single point at 10 μM, HERG in HEK cells, read-out: HERG % Inhib. @ 10 μM
T2 construct: expressed in transfected cells; host or cells: HEK cells
T2 sequence (Q12809 whole entry): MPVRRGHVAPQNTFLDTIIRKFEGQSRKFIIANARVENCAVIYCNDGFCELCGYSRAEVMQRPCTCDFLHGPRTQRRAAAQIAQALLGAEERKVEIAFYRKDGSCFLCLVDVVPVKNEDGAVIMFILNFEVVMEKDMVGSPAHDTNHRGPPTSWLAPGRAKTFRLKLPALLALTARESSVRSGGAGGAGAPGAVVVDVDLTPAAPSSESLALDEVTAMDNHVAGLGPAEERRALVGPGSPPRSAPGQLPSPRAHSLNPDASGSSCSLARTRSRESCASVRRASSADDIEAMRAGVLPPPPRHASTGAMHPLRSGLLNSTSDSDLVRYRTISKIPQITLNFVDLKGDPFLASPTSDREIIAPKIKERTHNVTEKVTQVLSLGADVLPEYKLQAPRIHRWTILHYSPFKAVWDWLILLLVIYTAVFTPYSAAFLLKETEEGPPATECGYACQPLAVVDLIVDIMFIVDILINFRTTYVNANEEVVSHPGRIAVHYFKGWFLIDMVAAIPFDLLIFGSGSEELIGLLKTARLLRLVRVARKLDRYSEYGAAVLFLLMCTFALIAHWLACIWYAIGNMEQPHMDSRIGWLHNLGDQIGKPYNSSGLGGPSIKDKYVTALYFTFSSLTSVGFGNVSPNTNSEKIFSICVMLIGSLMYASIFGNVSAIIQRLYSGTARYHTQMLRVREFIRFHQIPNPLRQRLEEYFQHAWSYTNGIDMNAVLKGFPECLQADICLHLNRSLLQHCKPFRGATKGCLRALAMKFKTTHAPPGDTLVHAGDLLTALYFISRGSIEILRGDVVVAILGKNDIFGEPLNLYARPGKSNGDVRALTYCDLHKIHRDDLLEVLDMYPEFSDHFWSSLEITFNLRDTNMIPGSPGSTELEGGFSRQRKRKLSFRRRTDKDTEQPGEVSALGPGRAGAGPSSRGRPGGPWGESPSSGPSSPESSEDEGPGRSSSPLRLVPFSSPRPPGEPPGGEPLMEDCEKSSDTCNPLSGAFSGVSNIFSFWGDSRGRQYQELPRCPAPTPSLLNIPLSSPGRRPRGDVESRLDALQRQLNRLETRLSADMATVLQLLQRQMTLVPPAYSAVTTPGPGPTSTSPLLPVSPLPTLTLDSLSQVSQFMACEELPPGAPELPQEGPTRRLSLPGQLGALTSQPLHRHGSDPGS
Source text: The external solution is standard Tyrodes solution.

T1 sequence (P22460 whole entry): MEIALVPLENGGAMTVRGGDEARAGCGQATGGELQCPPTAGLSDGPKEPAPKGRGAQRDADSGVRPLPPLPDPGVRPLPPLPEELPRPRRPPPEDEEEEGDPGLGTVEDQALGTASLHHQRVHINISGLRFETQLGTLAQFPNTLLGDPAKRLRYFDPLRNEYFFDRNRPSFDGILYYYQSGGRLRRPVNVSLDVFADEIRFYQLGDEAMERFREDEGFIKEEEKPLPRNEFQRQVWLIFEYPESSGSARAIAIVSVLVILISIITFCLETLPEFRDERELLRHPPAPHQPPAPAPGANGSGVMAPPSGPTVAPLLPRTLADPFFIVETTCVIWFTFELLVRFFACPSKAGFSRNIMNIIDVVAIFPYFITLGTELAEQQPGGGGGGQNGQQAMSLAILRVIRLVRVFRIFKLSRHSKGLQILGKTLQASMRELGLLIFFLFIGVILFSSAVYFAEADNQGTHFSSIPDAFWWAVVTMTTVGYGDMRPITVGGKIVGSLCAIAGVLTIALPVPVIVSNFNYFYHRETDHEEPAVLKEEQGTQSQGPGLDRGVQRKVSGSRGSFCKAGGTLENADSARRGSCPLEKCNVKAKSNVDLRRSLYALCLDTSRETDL

SMILES	inhibition at 1 µM (Kv1.5)	IC50 (L-type calcium channels)	inhibition at 10 µM (HERG)
COc1ccc(CCN2C(=O)C3(CCN(C(=O)N(C)OC)CC3)N(C)C2c2ccc(C3CC3)cc2)cc1 (stereo not drawn) [Compound 28, 2-(4-Cyclopropylphenyl)-N-methoxy-3-[2-(4-methoxyphenyl)ethyl]-N,1-dimethyl-4-oxo-1,3,8-triazaspiro[4.5]decane-8-carboxamide]	88%	8.4 µM	–
COc1ccc(CCN2C(=O)C3(CCN(C(=O)OC(C)(C)C)CC3)N(C)C2c2ccc(C3CC3)cc2)cc1 (stereo not drawn) [Compound 65, 2-(4-cyclopropylphenyl)-3-[2-(4-methoxyphenyl)ethyl]-1-methyl-4-oxo-1,3,8-triaza-spiro[4.5]decane-8-carboxylic acid tert-butyl ester]	80%	3.6 µM	–
CN1C(c2ccc(C3CC3)cc2)N(CCCc2ccccc2)C(=O)C12CCNCC2 (stereo not drawn) [Compound 43, 2-(4-Cyclopropylphenyl)-1-methyl-3-(3-phenylpropyl) —1,3,8-triazaspiro[4.5]-decan-4-one]	23%	–	–
COc1ccc(CCN2C(=O)C3(CCNCC3)N(C)C2c2ccc(C3CC3)cc2)cc1 (stereo not drawn) [Compound 1, 2-(4-Cyclopropylphenyl)-3-[2-(4-methoxyphenyl)ethyl]-1-methyl-1,3,8-triaza-spiro[4.5]decan-4-one]	2%	–	–
COc1ccc(CCN2C(=O)C3(CCN(C(=O)NC(C)C)CC3)N(C)C2c2ccc(OC)cc2)cc1 (stereo not drawn) [Compound 17, 2-(4-Methoxyphenyl)-3-[2-(4-methoxyphenyl)ethyl]-1-methyl-4-oxo-1,3,8-triaza-spiro[4.5]decane-8-carboxylic acid isopropylamide]	31%	–	–
CCN(CC)c1ccc(C2N(CCc3ccc(OC)cc3)C(=O)C3(CCN(C(=O)OC(C)(C)C)CC3)N2C)cc1 (stereo not drawn) [Compound 39, tert-Butyl 2-(4-diethylaminophenyl)-3-[2-(4-methoxyphenyl)ethyl]-1-methyl-4-oxo-1,3,8-triazaspiro[4.5]decane-8-carboxylate]	86%	4.4 µM	–
CN=C(N)N1CCC2(CC1)C(=O)N(CCc1ccc(OC)cc1)C(c1ccc(C3CC3)cc1)N2C (stereo not drawn) [Compound 86, 2-(4-cyclopropylphenyl)-3-[2-(4-methoxyphenyl)ethyl]-N′,1-dimethyl-4-oxo-1,3,8-triazaspiro[4.5]decane-8-carboximidamide]	4%	–	–
COc1ccc(CCN2C(=O)C3(CCNCC3)NC2c2ccc(C3CC3)cc2)cc1 (stereo not drawn) [Compound 93, 2-(4-cyclopropylphenyl)-3-[2-(4-methoxyphenyl)ethyl]-1,3,8-triazaspiro[4.5]decan-4-one]	21%	–	–
CN1C(c2ccc(C3CC3)cc2)N(CCCc2ccccc2)C(=O)C12CCN(C(=O)OC(C)(C)C)CC2 (stereo not drawn) [Compound 47, 2-(4-Cyclopropylphenyl)-1-methyl-4-oxo-3-(3-phenylpropyl)-1,3,8-triazaspiro-[4.5]decane-8-carboxylic acid tert-butyl ester]	75%	20 µM	–
COc1ccc(CCN2C(=O)C3(CCNCC3)N(C)C2Cc2ccc(C(C)(C)C)cc2)cc1 (stereo not drawn) [Compound 69, 2-(4-tert-butylbenzyl)-3-[2-(4-methoxyphenyl)ethyl]-1-methyl-1,3,8-triazaspiro[4.5]decan-4-one]	5%	–	–
CN1C(c2ccc(C3CC3)cc2)N(CCc2ccc(OC(F)(F)F)cc2)C(=O)C12CCNCC2 (stereo not drawn) [Compound 78, 2-(4-cyclopropylphenyl)-1-methyl-3-{2-[4-(trifluoromethoxy)phenyl]ethyl}-1,3,8-triazaspiro[4.5]decan-4-one]	16%	–	–
COc1ccc(CCN2C(=O)C3(CCNCC3)NC2c2ccc(C(C)(C)C)cc2)cc1 (stereo not drawn) [Compound 76, 2-(4-tert-butylphenyl)-3-[2-(4-methoxyphenyl)ethyl]-1,3,8-triazaspiro[4.5]decan-4-one]	5%	–	–
COc1ccc(CCN2C(=O)C3(CCN(C(=O)OC(C)C)CC3)N(C)C2c2ccc(C3CC3)cc2)cc1 (stereo not drawn) [Compound 36, Isopropyl 2-(4-cyclopropylphenyl)-3-[2-(4-methoxyphenyl)ethyl]-1-methyl-4-oxo-1,3,8-triazaspiro[4.5]decane-8-carboxylate]	92%	7.4 µM	–
COc1ccc(CCN2C(=O)C3(CCN(C(N)=O)CC3)N(C)C2c2ccc(OC)cc2)cc1 (stereo not drawn) [Compound 72, 2-(4-methoxyphenyl)-3-[2-(4-methoxyphenyl)ethyl]-1-methyl-4-oxo-1,3,8-triazaspiro[4.5]decane-8-carboxamide]	16%	–	–
COc1ccc(CCN2C(=O)C3(CCN(C(N)=O)CC3)N(C)C2c2ccc(OC(F)F)cc2)cc1 (stereo not drawn) [Compound 13, 2-(4-Difluoromethoxyphenyl)-3-[2-(4-methoxyphenyl)ethyl]-1-methyl-4-oxo-1,3,8-triaza-spiro[4.5]decane-8-carboxylic acid amide]	46%	–	57%
COc1ccc(CCN2C(=O)C3(CCN(C(N)=O)CC3)NC2c2ccc(C3CC3)cc2)cc1 (stereo not drawn) [Compound 74, 2-(4-cyclopropylphenyl)-3-[2-(4-methoxyphenyl)ethyl]-4-oxo-1,3,8-triazaspiro[4.5]decane-8-carboxamide]	5%	–	–
COc1ccc(CCN2C(=O)C3(CCN(C(=N)N)CC3)N(C)C2c2ccc(C3CC3)cc2)cc1 (stereo not drawn) [Compound 84, 2-(4-cyclopropylphenyl)-3-[2-(4-methoxyphenyl)ethyl]-1-methyl-4-oxo-1,3,8-triazaspiro[4.5]decane-8-carboximidamide]	7%	–	–
COc1ccc(CCN2C(=O)C3(CCN(C(N)=O)CC3)N(C)C2c2ccc(C(F)(F)F)cc2)cc1 (stereo not drawn) [Compound 11, 2-(4-Trifluoromethylphenyl)-3-[2-(4-methoxyphenyl)ethyl]-1-methyl-4-oxo-1,3,8-triaza-spiro[4.5]decane-8-carboxylic acid amide]	29%	–	33%
COc1ccc(CCN2C(=O)C3(CCN(C(=O)C(C)(C)NC(=O)OC(C)(C)C)CC3)N(C)C2c2ccc(C3CC3)cc2)cc1 (stereo not drawn) [Compound 70, (2-{2-(4-cyclopropylphenyl)-3-[2-(4-methoxyphenyl)ethyl]-1-methyl-4-oxo-1,3,8-triaza-spiro[4.5]dec-8-yl}-1,1-dimethyl-2-oxo-ethyl)-carbamic acid tert-butyl ester]	42%	–	–
COc1ccc(CCN2C(=O)C3(CCN(C(=O)N(C)C)CC3)N(C)C2c2ccc(C3CC3)cc2)cc1 (stereo not drawn) [Compound 18, 2-(4-Cyclopropylphenyl)-3-[2-(4-methoxyphenyl)ethyl]-1-methyl-4-oxo-1,3,8-triaza-spiro[4.5]decane-8-carboxylic acid dimethylamide]	10%	–	–
COc1ccc(CCN2C(=O)C3(CCN(C(=O)[C@H]4CCCN4)CC3)N(C)C2c2ccc(C3CC3)cc2)cc1 (stereo partly drawn) [Compound 90, 2-(4-cyclopropylphenyl)-3-[2-(4-methoxyphenyl)ethyl]-1-methyl-8-D-prolyl-1,3,8-triazaspiro[4.5]decan-4-one]	8%	–	–
COC(=O)N1CCC2(CC1)C(=O)N(CCc1ccc(OC)cc1)C(c1ccc(C3CC3)cc1)N2C (stereo not drawn) [Compound 41, Methyl 2-(4-cyclopropylphenyl)-3-[2-(4-methoxyphenyl)ethyl]-1-methyl-4-oxo-1,3,8-triazaspiro[4.5]decane-8-carboxylate]	17%	–	–
COc1ccc(CCN2C(=O)C3(CCN(CC4CC4)CC3)N(C)C2c2ccc(C3CC3)cc2)cc1 (stereo not drawn) [Compound 56, 8-Cyclopropylmethyl-2-(4-cyclopropylphenyl)-3-[2-(4-methoxyphenyl)ethyl]-1-methyl-1,3,8-triaza-spiro[4.5]decan-4-one]	12%	–	–
COc1ccc(CCN2C(=O)C3(CCN(S(C)(=O)=O)CC3)NC2c2ccc(C3CC3)cc2)cc1 (stereo not drawn) [Compound 79, 2-(4-cyclopropylphenyl)-3-[2-(4-methoxyphenyl)ethyl]-8-(methylsulfonyl)-1,3,8-triazaspiro[4.5]decan-4-one]	8%	–	–
COc1ccc(CCN2C(=O)C3(CCN(C(=O)OC(C)(C)C)CC3)NC2c2ccc(C(C)(C)C)cc2)cc1 (stereo not drawn) [Compound 60, 2-(4-tert-Butylphenyl)-3-[2-(4-methoxyphenyl)ethyl]-4-oxo-1,3,8-triaza-spiro[4.5]decane-8-carboxylic acid tert-butyl ester]	32%	–	–
COc1ccc(CCN2C(=O)C3(CCN(C(=O)OC(C)(C)C)CC3)NC2c2ccc(OC)cc2)cc1 (stereo not drawn) [Compound 73, tert-butyl 2-(4-methoxyphenyl)-3-[2-(4-methoxyphenyl)ethyl]-4-oxo-1,3,8-triazaspiro[4.5]decane-8-carboxylate]	11%	–	–
